The text below walks through data of patent US11634425B2, “Pharmaceutical compounds” (priority 2019, dated 2023).

Where two headings read alike, the source gives them in different places. Some results are limits rather than exact numbers.

The nature of one series: in vitro. In kind it is in vitro ADME. The following applies: microsomes, pH 7.4, 1 μM compound, 0.5 mg/mL protein, read-out: Liver Microsomal Stability t1/2. The method, boiled down:
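Pooled liver microsomes (0.5 mg/mL protein) in 0.1 M phosphate pH 7.4 with 1 μM compound and 1 mM NADPH at 37° C., sampled at 0–45 min; minus-NADPH control at 45 min. Acetonitrile quench, LC-MS/MS; t1/2 and CLint from ln peak-area ratio vs time slope.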

For the next series, the system named is RSV A2. In words: RSV plaque reduction assay. In kind it is cell-based, respiratory syncytial virus (RSV). The settings on record: human respiratory syncytial virus, HepG2, Hep-G2 cells, mean of at least two experiments. The method, boiled down:
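RSV A2 at 100 PFU/well was premixed with eight compound dilutions and added to confluent Hep-G2 monolayers for 2 h at 37 °C. Cells were then kept 2 days under a DMEM/2% FBS/0.8% CMC overlay containing compound. Immunostained plaques were counted relative to virus controls, and EC50 came from 4-parameter fits, averaged over at least two experiments.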

Series [1] can be described thus: in vivo. In kind it is in vivo. The settings on record: male Beagle dog; for Vd / clearance / Cmax / half-life / AUC(0-t): in vivo; for Cmax / C 8 h: IV 0.5 mg/kg / PO 3 or 4 mg/kg study; for AUC(0-t): read-out: PO AUClast. The method, then:
The pharmacokinetics of compounds were studied in vivo in dogs at doses of 0.5 mg/kg (IV) and 4 mg/kg (PO).
Male Beagle dogs were treated with experimental compounds via intravenous administration (n=2; 0.5 mg/kg) or oral administration (n=2; 3 or 4 mg/kg). Compounds were formulated as a solution in 20% dimethylacetamide/80% (2-hydroxypropyl)-β-cyclodextrin (20% w/v) (IV administration) or a solution in 10% dimethylacetamide/90% (2-hydroxypropyl)-β-cyclodextrin (20% w/v) (PO administration). […] Serial blood samples were collected from the jugular vein at 0.03, 0.08, 0.25, 0.5, 1, 2, 4, 6, 8 and 24 h post IV dosing of compound, and at 0.08, 0.25, 0.5, 1, 2, 4, 6, 8 and 24 h post oral dosing of compound, and plasma was prepared by centrifugation and stored immediately at −80° C. Samples were subsequently thawed, prepared for analysis by protein precipitation with acetonitrile, and analysed by tandem LCMS using electrospray ionisation using a matrix-matched calibration curve. PK parameters were calculated from the resulting data.

A further series can be described thus: Cell cytotoxicity (CC50). The following applies: human; mean of at least two experiments. In kind it is cell-based. The method, boiled down: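 Values are means of ≥2 independent runs, rounded to whole units, from 4-parameter variable-slope curve fits. Toxicity measured in Hep-G2 cells run alongside RSV plaque-reduction assays.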
Series [2] can be described thus: in vivo. In kind it is in vivo, rat (Sprague Dawley). The settings on record: male SD rat; for Vd / clearance / Cmax / half-life / AUC(0-t): Sprague Dawley, in vivo; for Cmax / C 8 h: IV 1 mg/kg / PO 10 mg/kg study; for AUC(0-t): read-out: PO AUClast. The protocol: The pharmacokinetics of compounds were studied in vivo in rats at doses of 1 mg/kg (IV) and 10 mg/kg (PO).
Male rats [Sprague Dawley (SD)] surgically prepared with a jugular vein cannula were treated with experimental compounds via intravenous administration (IV; n=3; 1 mg/kg) or oral administration (PO; n=3; 10 mg/kg). Compounds were formulated as a solution in 40:60 dimethylacetamide:saline (IV administration) and a solution of 10% DMSO, 20% cremaphor in water (70%) (PO administration). […] Serial blood samples were collected via the cannula at 0.02, 0.08, 0.25, 0.5, 1, 2, 4, 6, 8 and 24 h post IV dosing of compound, and at 0.08, 0.25, 0.5, 1, 2, 4, 6, 8 and 24 h post oral dosing of compound, and plasma was prepared by centrifugation and stored immediately at −80° C. Samples were subsequently thawed, prepared for analysis by protein precipitation with acetonitrile, and analysed by tandem LCMS using electrospray ionisation using a matrix-matched calibration curve. PK parameters were calculated from the resulting data.

Setting [3] is: IV 0.5 mg/kg, read-out: IV t1/2 (converted).
Setting [4] is: PO 3 or 4 mg/kg, read-out: PO t1/2 (converted).
Setting [5] is: IV 1 mg/kg, read-out: IV t1/2 (converted).
Setting [6] is: PO 10 mg/kg, read-out: PO t1/2 (converted).

A word on the EC50: it is the concentration giving half of the maximal effect. A lower EC50 goes with a more potent agent. As usually defined, the Vd is a proportionality between amount in the body and measured concentration, not a real space. Lower therefore signals little distribution into tissue. The clearance is the volume of plasma or blood freed of the substance per unit of time. Higher therefore signals a high capacity for elimination. The Cmax is the maximum level reached in the sampled fluid or tissue. By CC50 is commonly meant the concentration that lowers cell viability or growth by half. A higher CC50 goes with better tolerance by the cells. For `O=C(N[C@H]1N=C(c2ccccc2)c2ccccc2NC1=O)c1c(-c2ccccc2F)nn2cccnc12` [Example 2, 2-(2-Fluorophenyl)-N-[(3S)-2-oxo-5-phenyl-1,3-dihydro-1,4-benzodiazepin-3-yl]pyrazolo[1,5-a]pyrimidine-3-carboxamide], the half-life at 1 μM is 7.38 h in the series “in vitro” (dog), 3.08 h in “in vitro” (human) and greater than 2.33 h in “in vitro” (rat). The same compound yielded an EC50 in the series on RSV A2 of 39 nM. Further, the Vd in the series “in vivo [1]” (IV 0.5 mg/kg) is 0.92 L/kg; in the series “in vivo [2]” (IV 1 mg/kg), 1.3 L/kg. The clearance came out at 1.3 mL/min/kg in “in vivo [1]” (IV 0.5 mg/kg) and 5 mL/min/kg in “in vivo [2]” (IV 1 mg/kg). For the same compound, the Cmax in the series “in vivo [1]” was determined as 1920 ng/mL; in the series “in vivo [2]” it was 2410 ng/mL. Moreover, the values for the half-life in “in vivo [1]” (setting [3]), in “in vivo [1]” (setting [4]) and in the series “in vivo [2]” (setting [5]) were 9.8 h, 11.1 h and 3.1 h, respectively. Moreover, the AUC(0-t) in the series “in vivo [1]” (PO 3 or 4 mg/kg) was determined as 22300 ng·h/mL; in the series “in vivo [2]” (PO 10 mg/kg), 34200 ng·h/mL. In addition, the “C 8 h” value in the series “in vivo [1]” was 968 ng/mL; in the series “in vivo [2]”, 2290 ng/mL. For the same compound, the F in “in vivo [1]” (IV 0.5 mg/kg, PO 3 or 4 mg/kg) amounted to 55%; in the series “in vivo [2]” (IV 1 mg/kg, PO 10 mg/kg), 103%. The same compound came in with a CC50 in “Cell cytotoxicity (CC50)” greater than 25000 nM.
Turning to `Cc1ccc(-c2nn3cccnc3c2C(=O)N[C@H]2N=C(c3ccccc3)c3cccc(F)c3NC2=O)cn1` [Example 50, N-[(3S)-9-fluoro-2-oxo-5-phenyl-1,3-dihydro-1,4-benzodiazepin-3-yl]-2-(6-methylpyridin-3-yl)pyrazolo[1,5-a]pyrimidine-3-carboxamide], the half-life at 1 μM in “in vitro” (dog) was found to be 13.3 h; in the series “in vitro” (human), 13.4 h; in “in vitro” (rat), 3.88 h. Also, the response in the series with RSV A2 was half-maximal at 99 nM (EC50). Also, the Vd in “in vivo [1]” (IV 0.5 mg/kg) is 1.3 L/kg; in the series “in vivo [2]” (IV 1 mg/kg), 0.94 L/kg. For the same compound, the clearance in the series “in vivo [1]” (IV 0.5 mg/kg) was 1.7 mL/min/kg; in “in vivo [2]” (IV 1 mg/kg), 13 mL/min/kg. Besides, the results for the Cmax in “in vivo [1]” and in “in vivo [2]” were 1200 ng/mL and 2040 ng/mL, respectively. Moreover, the half-life in “in vivo [1]” (setting [3]) is 12.2 h; in “in vivo [1]” (setting [4]), 16.1 h; in the series “in vivo [2]” (setting [5]), 1.2 h; in the series “in vivo [2]” (setting [6]) it was 2.4 h. Further, the AUC(0-t) stood at 13300 ng·h/mL in “in vivo [1]” (PO 3 or 4 mg/kg) and 20000 ng·h/mL in the series “in vivo [2]” (PO 10 mg/kg). Also, the entries for the “C 8 h” value in “in vivo [1]” and in the series “in vivo [2]” were 549 ng/mL and 1003 ng/mL, respectively. Also, the F in “in vivo [1]” (IV 0.5 mg/kg, PO 3 or 4 mg/kg) was determined as 65%; in the series “in vivo [2]” (IV 1 mg/kg, PO 10 mg/kg) it was 152%. The compound further displayed a CC50 in “Cell cytotoxicity (CC50)” greater than 25000 nM.
In the case of `CCc1ccc(-c2nn3cccnc3c2C(=O)N[C@H]2N=C(c3ccccc3)c3cccc(F)c3NC2=O)cn1` [Example 55], the half-life at 1 μM in “in vitro” (dog) stood at 1.87 h; in “in vitro” (human), 2.93 h; in the series “in vitro” (rat), 1.01 h. Also, in the series with RSV A2, a half-maximal effect (EC50) was put at 45 nM. The figures for the Vd in the series “in vivo [1]” (IV 0.5 mg/kg) and in the series “in vivo [2]” (IV 1 mg/kg) were 0.47 L/kg and 1.2 L/kg, respectively. Moreover, the clearance in the series “in vivo [1]” (IV 0.5 mg/kg) was found to be 1.5 mL/min/kg; in the series “in vivo [2]” (IV 1 mg/kg), 14.3 mL/min/kg. Also, the values for the Cmax in the series “in vivo [1]” and in “in vivo [2]” were 3210 ng/mL and 1420 ng/mL, respectively. The half-life was 5.4 h in the series “in vivo [1]” (setting [3]), 6.1 h in the series “in vivo [1]” (setting [4]), 2 h in the series “in vivo [2]” (setting [5]) and 2.5 h in “in vivo [2]” (setting [6]). Also, the AUC(0-t) amounted to 20900 ng·h/mL in “in vivo [1]” (PO 3 or 4 mg/kg) and 14700 ng·h/mL in the series “in vivo [2]” (PO 10 mg/kg). For the same compound, the “C 8 h” value in the series “in vivo [1]” stood at 720 ng/mL; in the series “in vivo [2]”, 753 ng/mL. The F in “in vivo [1]” (IV 0.5 mg/kg, PO 3 or 4 mg/kg) is listed as 65%; in the series “in vivo [2]” (IV 1 mg/kg, PO 10 mg/kg) it was 113%. The compound further registered a CC50 in “Cell cytotoxicity (CC50)” greater than 25000 nM.
